Experimental data reported in patent publication EP4778922A1, “BICYCLIC COMPOUND, AND PREPARATION METHOD THEREFOR AND PHARMACEUTICAL USE THEREOF” (Shanghai Jeyou Pharmaceutical Co., Ltd., priority 2023, dated 2025).
pIC50: −log10 of the molar value. Read-outs that look alike come from different tables or passages of the source.

Columns and labels:
CYP1A2 = target: T1, CYP1A2 (Homo sapiens, UniProt P05177); test: CYP inhibition assay in human liver microsomes; format: in vitro ADME
T1 construct: co-incubated with human liver microsomes; from tissue; host or cells: human liver microsomes
T1 sequence (P05177 1-516): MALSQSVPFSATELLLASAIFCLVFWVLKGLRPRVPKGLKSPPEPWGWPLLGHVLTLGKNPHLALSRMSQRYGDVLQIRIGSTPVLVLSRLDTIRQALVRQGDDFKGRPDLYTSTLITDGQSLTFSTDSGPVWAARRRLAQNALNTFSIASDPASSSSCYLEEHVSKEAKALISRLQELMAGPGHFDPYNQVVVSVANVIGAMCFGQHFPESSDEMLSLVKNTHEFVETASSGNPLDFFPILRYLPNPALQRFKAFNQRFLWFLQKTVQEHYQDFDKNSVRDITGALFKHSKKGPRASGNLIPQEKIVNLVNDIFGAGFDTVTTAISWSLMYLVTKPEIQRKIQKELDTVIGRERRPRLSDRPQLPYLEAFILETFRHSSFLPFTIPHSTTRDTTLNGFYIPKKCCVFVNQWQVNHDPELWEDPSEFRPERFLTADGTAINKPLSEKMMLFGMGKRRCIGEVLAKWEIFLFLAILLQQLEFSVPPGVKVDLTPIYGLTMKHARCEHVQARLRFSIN
Experimental: (§1) Test Example 3: CYP Inhibition Assay
(§2) An in vitro assay system was used to evaluate the effects of the compounds on the activities of several human liver microsomal cytochrome P450 (CYP) isozymes (CYP1A2, CYP2C9, CYP2D6, CYP3A4 (testosterone/midazolam), CYP2C19, and CYP2C8). Specific probe substrates for CYP450 isozymes were co-incubated with human liver microsomes and the compound at various concentrations (0, 0.0300, 0.100, 0.300, 1.00, 3.00, 10.0 µM). The reaction was initiated by adding the coenzyme NADPH. After the reaction was completed, the samples were processed, and the metabolites generated from the probe substrates were detected by liquid chromatography-tandem mass spectrometry (LC-MS/MS). Based on the resulting dose-response curves, the IC50 values of the test compounds for the probe substrate reactions catalyzed by each CYP isozyme were calculated.

[1] = target: T2, CYP3A4 (testosterone/midazolam) (Homo sapiens, UniProt P08684); test: CYP inhibition assay in human liver microsomes; format: in vitro ADME
T2 construct: co-incubated with human liver microsomes; from tissue; host or cells: human liver microsomes
Experimental: as §1, §2

CYP2C9 = target: T3, CYP2C9 (Homo sapiens, UniProt P11712); test: CYP inhibition assay in human liver microsomes; format: in vitro ADME
T3 construct: co-incubated with human liver microsomes; from tissue; host or cells: human liver microsomes
Experimental: as §1, §2

CYP2C19 = target: T4, CYP2C19 (Homo sapiens, UniProt P33261); test: CYP inhibition assay in human liver microsomes; format: in vitro ADME
T4 construct: co-incubated with human liver microsomes; from tissue; host or cells: human liver microsomes
Experimental: as §1, §2

CYP2C8 = target: T5, CYP2C8 (Homo sapiens, UniProt P10632); test: CYP inhibition assay in human liver microsomes; format: in vitro ADME
T5 construct: co-incubated with human liver microsomes; from tissue; host or cells: human liver microsomes
T5 sequence (P10632 1-490): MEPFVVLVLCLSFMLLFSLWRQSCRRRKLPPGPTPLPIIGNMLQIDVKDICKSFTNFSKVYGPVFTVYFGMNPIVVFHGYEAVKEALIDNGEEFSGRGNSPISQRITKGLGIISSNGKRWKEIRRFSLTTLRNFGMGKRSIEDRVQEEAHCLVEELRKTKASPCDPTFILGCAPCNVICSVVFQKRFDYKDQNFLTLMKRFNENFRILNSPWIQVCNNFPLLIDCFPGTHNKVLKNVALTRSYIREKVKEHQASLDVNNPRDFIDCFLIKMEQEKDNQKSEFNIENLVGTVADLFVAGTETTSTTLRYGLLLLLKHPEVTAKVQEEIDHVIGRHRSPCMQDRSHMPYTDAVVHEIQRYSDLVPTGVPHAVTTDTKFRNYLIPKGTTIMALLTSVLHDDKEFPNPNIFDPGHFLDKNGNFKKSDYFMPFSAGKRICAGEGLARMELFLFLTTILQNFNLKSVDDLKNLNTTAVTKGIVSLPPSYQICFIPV
Experimental: as §1, §2

CYP2D6 = target: T6, CYP2D6 (Homo sapiens, UniProt P10635); test: CYP inhibition assay in human liver microsomes; format: in vitro ADME
T6 construct: co-incubated with human liver microsomes; from tissue; host or cells: human liver microsomes
Experimental: as §1, §2

[2] = Mouse pharmacokinetic test; format: in vivo, ICR mice; details: plasma; for Tmax: read-out: Tmax; for bioavailability: PO-30mpk vs IV-0.5mpk
Procedure, shortened: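 Male naive ICR mice (25–30 g, n=3 per route) received a single intravenous or oral dose, with feeding resumed 4 h post-dose. Blood was centrifuged at 4°C, and plasma was stored at -80°C until analysis.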

LNCaP cells = test: Cell proliferation inhibition assay in LNCaP cells (0.2 nM DHT, CellTiter-Glo, 7 days); format: cell-based, human; details: Homo sapiens, LNCaP, 168 h
Procedure, shortened: (§3)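 LNCaP and 22RV1 human prostate cancer cells, 3000 per well, exposed to graded compound for 7 days at 37°C, 5% CO2; LNCaP got 0.2 nM DHT 1 h after compound. Viability by CellTiter-Glo luminescence; IC50 from four-parameter variable-slope fit.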

22RV1 cells = test: Cell proliferation inhibition assay in 22RV1 cells (CellTiter-Glo, 7 days); format: cell-based, human; details: Homo sapiens, 22Rv1, 168 h
Procedure, shortened: as §3

[3] = human liver microsomes, NADPH, read-out: CYPs 1A2 (IC50)
[4] = probe substrate midazolam, read-out: CYPs 3A4 (Midazolam) (IC50)
[5] = probe substrate testosterone, read-out: CYPs 3A4 (Testosterone) (IC50)
[6] = human liver microsomes, NADPH, read-out: CYPs 2C9 (IC50)
[7] = human liver microsomes, NADPH, read-out: CYPs 2C19 (IC50)
[8] = human liver microsomes, NADPH, read-out: CYPs 2C8 (IC50)
[9] = human liver microsomes, NADPH, read-out: CYPs 2D6 (IC50)

T3 sequence (P11712 whole entry): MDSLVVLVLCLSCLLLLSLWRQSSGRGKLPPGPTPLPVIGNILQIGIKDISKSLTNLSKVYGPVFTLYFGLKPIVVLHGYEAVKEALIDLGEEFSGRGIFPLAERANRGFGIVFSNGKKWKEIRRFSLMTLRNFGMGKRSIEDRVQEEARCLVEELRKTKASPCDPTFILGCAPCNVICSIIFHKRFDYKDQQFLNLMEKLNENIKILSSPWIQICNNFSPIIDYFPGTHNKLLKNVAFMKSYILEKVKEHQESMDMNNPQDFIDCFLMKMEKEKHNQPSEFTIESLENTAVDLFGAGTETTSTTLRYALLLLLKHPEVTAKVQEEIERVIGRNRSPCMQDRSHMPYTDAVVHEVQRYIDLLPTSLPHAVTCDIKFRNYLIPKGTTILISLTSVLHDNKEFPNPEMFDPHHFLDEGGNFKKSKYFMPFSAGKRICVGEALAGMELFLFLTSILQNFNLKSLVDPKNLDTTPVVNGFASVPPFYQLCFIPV
T2 sequence (P08684 whole entry): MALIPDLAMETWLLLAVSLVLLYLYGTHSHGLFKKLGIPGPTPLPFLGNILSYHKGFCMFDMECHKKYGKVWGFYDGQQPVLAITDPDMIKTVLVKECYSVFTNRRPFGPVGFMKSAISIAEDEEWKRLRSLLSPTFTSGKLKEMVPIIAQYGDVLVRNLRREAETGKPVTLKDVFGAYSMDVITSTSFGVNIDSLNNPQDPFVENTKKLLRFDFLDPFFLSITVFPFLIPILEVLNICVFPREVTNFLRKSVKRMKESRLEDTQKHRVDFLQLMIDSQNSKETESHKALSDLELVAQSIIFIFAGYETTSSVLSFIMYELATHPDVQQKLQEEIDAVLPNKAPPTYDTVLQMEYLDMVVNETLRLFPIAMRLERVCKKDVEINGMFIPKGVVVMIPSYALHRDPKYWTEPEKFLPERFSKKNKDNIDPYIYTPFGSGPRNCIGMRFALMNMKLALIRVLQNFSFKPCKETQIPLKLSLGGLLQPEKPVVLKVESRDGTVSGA
T6 sequence (P10635 whole entry): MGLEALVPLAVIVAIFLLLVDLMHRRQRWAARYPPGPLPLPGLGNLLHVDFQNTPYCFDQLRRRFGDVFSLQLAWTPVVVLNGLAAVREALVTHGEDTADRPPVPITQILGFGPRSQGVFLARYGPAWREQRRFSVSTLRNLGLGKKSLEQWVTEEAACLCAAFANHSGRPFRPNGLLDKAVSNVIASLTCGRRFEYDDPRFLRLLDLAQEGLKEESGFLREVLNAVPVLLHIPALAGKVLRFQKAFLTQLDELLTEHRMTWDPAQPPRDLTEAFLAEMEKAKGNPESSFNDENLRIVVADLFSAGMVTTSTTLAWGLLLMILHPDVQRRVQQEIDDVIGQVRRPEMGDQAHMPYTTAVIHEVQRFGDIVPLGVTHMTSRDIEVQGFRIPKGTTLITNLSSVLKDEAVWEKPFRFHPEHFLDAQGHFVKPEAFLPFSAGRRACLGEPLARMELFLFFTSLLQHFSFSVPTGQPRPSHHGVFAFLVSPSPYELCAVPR
T4 sequence (P33261 whole entry): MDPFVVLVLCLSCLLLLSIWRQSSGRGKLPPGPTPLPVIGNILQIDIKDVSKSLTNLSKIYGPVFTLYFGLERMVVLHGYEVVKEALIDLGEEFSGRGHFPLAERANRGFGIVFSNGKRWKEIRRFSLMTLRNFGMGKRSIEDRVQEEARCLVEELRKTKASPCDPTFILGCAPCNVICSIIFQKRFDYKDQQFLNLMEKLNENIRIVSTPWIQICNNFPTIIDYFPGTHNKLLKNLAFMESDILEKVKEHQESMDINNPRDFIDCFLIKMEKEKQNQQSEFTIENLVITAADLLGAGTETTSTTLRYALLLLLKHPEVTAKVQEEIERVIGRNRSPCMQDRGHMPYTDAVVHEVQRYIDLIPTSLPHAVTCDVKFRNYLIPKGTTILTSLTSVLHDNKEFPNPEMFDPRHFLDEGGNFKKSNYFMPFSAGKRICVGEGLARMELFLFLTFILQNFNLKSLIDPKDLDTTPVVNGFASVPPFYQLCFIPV

| Structure (SMILES) | pIC50 (CYP1A2; [3]) | pIC50 [1, 4] | pIC50 [1, 5] | pIC50 (CYP2C9; [6]) | pIC50 (CYP2C19; [7]) | pIC50 (CYP2C8; [8]) | pIC50 (CYP2D6; [9]) | AUC(0-inf) ([2]; po, 30 mg/kg, PO-30mpk) [µg·h/mL] | Cmax ([2]; po, 30 mg/kg, PO-30mpk) [ng/mL] | half-life ([2]; po, 30 mg/kg, PO-30mpk) [h] | Tmax ([2]; po, 30 mg/kg, PO-30mpk) [h] | pIC50 (LNCaP cells) | C0 ([2]; 0.5 mg/kg, IV-0.5mpk) [ng/mL] | clearance ([2]; 0.5 mg/kg, IV-0.5mpk) [mL/min/kg] | bioavailability ([2]; 30 mg/kg) [%] | AUC(0-inf) ([2]; iv, 0.5 mg/kg, IV-0.5mpk) [µg·h/mL] | half-life ([2]; iv, 0.5 mg/kg, IV-0.5mpk) [h] | pIC50 (22RV1 cells) | also measured |
| --- | --- | --- | --- | --- | --- | --- | --- | --- | --- | --- | --- | --- | --- | --- | --- | --- | --- | --- | --- |
| CC(C)(c1ccc(-c2cnc(OCc3ccnc(N4CC([S@](C)(=N)=O)C4)n3)cn2)cc1)c1cc(Cl)c(OCCCl)c(C#N)c1 (single isomer, unassigned) [Compound 323A] | < 5.00 | < 5.00 | < 5.00 | 5.10 | < 5.00 | < 5.00 | < 5.00 | 1390 | 131000 | 5.94 | 3.3 | 6.24 | – | – | – | – | – | – | – |
| CC(C)(c1ccc(-c2cnc(OCc3ccnc(N4CC([S@@](C)(=N)=O)C4)n3)cn2)cc1)c1cc(Cl)c(OCCCl)c(C#N)c1 (single isomer, unassigned) [Compound 323B] | < 5.00 | < 5.00 | < 5.00 | 5.54 | < 5.00 | < 5.00 | < 5.00 | 1180 | 108000 | 6.05 | 2.7 | 6.24 | – | – | – | – | – | – | – |
| CC(C)(c1ccc(-c2ccc(OCc3ccnc(P(C)(C)=O)n3)cc2)cc1)c1cc(Cl)c(OCCCl)c(C#N)c1 [Compound 2] | < 5.00 | < 5.00 | < 5.00 | 5.16 | < 5.00 | – | < 5.00 | 619 | 31700 | 12 | 3.3 | – | 1200 | 1.09 | 135 | 7.65 | 8.9 | 6.11 | – |
| CC(C)(c1ccc(-c2ccc3oc(-c4ccnc(P(C)(C)=O)n4)c(N)c3c2)cc1)c1cc(Cl)c(OCCCl)c(C#N)c1 [Compound 56] | – | – | – | – | – | – | – | 277 | 29600 | 8.57 | 3.33 | – | 6190 | 1.02 | 55.6 | 8.3 | 6.1 | 6.57 | pIC50 (CYP1A2): < 5.00; pIC50 ([1]; CYPs 3A4 (Midazolam) (IC50), probe substrate midazolam): < 5.00; pIC50 ([1]; CYPs 3A4 (Testosterone) (IC50), probe substrate testosterone): < 5.00; pIC50 (CYP2C9): < 5.00; pIC50 (CYP2C19): < 5.00; pIC50 (CYP2C8): < 5.00; pIC50 (CYP2D6): < 5.00 |
| CC(C)(c1ccc(-c2ccc(OCc3ccc(-c4cnc(P(C)(C)=O)nc4)cc3)cc2)cc1)c1cc(Cl)c(OCCCl)c(C#N)c1 [Compound 136] | – | < 5.00 | < 5.00 | < 5.00 | < 5.00 | < 5.00 | – | 242 | 10100 | 16.6 | 7 | 6.28 | 3730 | 0.49 | 23.5 | 17.1 | 14.6 | 6.64 | – |
| CC(C)(c1ccc(-c2cnc(OCc3ccnc(N4CC(S(C)(=O)=O)C4)n3)cn2)cc1)c1cc(Cl)c(OCCCl)c(C#N)c1 [Compound 262] | < 5.00 | < 5.00 | < 5.00 | 5.08 | < 5.00 | < 5.00 | < 5.00 | 648 | 74700 | 5.2 | 2 | 6.47 | 1790 | 0.55 | 71.2 | 15.2 | 10.8 | 6.85 | – |
| CC(C)(c1ccc(-c2ccc(OCc3ccc(-c4cnc(P(C)(C)=O)nc4)nc3)cc2)cc1)c1cc(Cl)c(OCCCl)c(C#N)c1 [Compound 276] | – | < 5.00 | < 5.00 | < 5.00 | < 5.00 | < 5.00 | – | 216 | 13200 | 9 | 4 | 6.29 | – | – | – | – | – | 6.96 | – |
| CC(C)(c1ccc(-c2cnc(OCc3ccnc(N4CC5(CCS5(=O)=O)C4)n3)cn2)cc1)c1cc(Cl)c(OCCCl)c(C#N)c1 [Compound 376] | – | < 5.00 | < 5.00 | < 5.00 | < 5.00 | < 5.00 | – | 2300 | 131000 | 23 | 4 | 7.00 | – | – | – | – | – | 6.57 | – |
